# Assays:
# mice [1] = assay: Spontaneous locomotor activity (actimeter); format: in vivo, NMRI mice; conditions: IP 30 min before test, 1, 3 and 10 mg/kg
# Procedure: Locomotor activity. The locomotion of mice was measured using an actimeter (Imetronic®, Pessac, France) through infrared detection. Eight individual removable polycarbonate cages (21 cm length, 7 cm wide and 12 cm high), in which each mouse was placed, were used in the actimeter. Locomotor activity was measured by recording the number of interruptions of beams of the red light over a period of 30 min through a recording system attached to the actimeter. Compound 20 was tested at 1, 3 and 10 mg/kg. Chlorpromazine (3 mg/kg) were used as depressive reference.
# mice [2] = assay: Spontaneous alternation (Y maze), scopolamine-induced deficit; format: in vivo, NMRI mice; conditions: 1 mg/kg IP 30 min before test, scopolamine 0.5 mg/kg SC
# Procedure: Animals. Adult male NMRI mice (3 months old, weighing 35–40 g) from Janvier labs (Le Genest-Saint-Isle, France) were used to perform experiments. Mice were housed by ten in standard polycarbonate cages in standard controlled conditions (22 ± 2 °C, 55 ± 10% humidity) with a reversed 12 h light/dark cycle (light on at 7 pm). Food and water were available ad libitum in the home cage. All experiments were conducted (between 9 am and 3 pm) during the active–dark phase of the cycle and were in agreement with the European Directives and French law on animal experimentation (personal authorization n° 14–17 for MB and 14–60 for TF).
# Spatial working memory. The antiamnesic activity of the tested compounds was evaluated by a reversal of deficit on spontaneous alternation behavior in the Y maze test. […] The Y maze made of grey plastic consisted of three equally-spaced arms (21-cm long, 7-cm wide with walls 15-cm high). The mouse was placed at the end of one of the arms and allowed to move freely through the maze during a 5 min session, while the sequence of arm entries was recorded by an observer. An arm entry was scored when all four feet crossed into the arm. An alternation was defined as entries into all three arms on a consecutive occasion.
# Pharmacological treatments.
# AChE = AChE (Homo sapiens, UniProt P22303); assay: AChE inhibition, Ellman assay; format: biochemical; set-up: AChE from human erythrocytes; purchased Sigma Aldrich; host or cells: human erythrocytes (natural source); conditions: (h)AChE IC50, Ellman assay; mean ± SEM of at least two experiments
# Chain of AChE (P22303 32-617 isoform P22303-2 limits assumed): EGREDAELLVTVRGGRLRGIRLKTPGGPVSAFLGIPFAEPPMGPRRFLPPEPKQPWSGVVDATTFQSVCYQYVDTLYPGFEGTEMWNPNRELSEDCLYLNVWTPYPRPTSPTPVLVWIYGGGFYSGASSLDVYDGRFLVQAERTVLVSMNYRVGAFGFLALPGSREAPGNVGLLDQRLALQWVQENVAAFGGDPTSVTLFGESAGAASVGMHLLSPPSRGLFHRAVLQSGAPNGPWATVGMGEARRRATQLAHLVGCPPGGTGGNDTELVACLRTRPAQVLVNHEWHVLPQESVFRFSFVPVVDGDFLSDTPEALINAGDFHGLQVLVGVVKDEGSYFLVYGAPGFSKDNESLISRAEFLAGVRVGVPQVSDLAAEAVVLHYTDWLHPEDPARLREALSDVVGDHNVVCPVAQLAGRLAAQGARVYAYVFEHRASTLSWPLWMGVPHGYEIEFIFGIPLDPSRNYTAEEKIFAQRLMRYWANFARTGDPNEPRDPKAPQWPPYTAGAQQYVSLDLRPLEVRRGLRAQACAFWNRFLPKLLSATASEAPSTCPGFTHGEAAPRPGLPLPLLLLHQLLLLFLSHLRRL
# Procedure: All the synthesized phenolic derivatives and their carbamates were evaluated as potential inhibitors of human AChE, using the Ellman assay, as well as potential ligands for human 5-HT4R using a radioligand displacement assay.
# The inhibitory capacity of compounds on AChE biological activity was evaluated through the use of the spectrometric method of Ellman. Acetylthiocholine iodide and 5,5-dithiobis-(2-nitrobenzoic) acid (DTNB) were purchased from Sigma Aldrich. AChE from human erythrocytes (buffered aqueous solution, ≥500 units/mg protein (BCA), Sigma Aldrich, St. Louis, MO, USA) was diluted in 20 mM HEPES buffer pH 8, 0.1% Triton X-100 such as to have enzyme solution with 0.25 unit/mL enzyme activity. In the procedure, 100 μL of 0.3 mM DTNB dissolved in a phosphate buffer with pH 7.4 were added into the 96-well plates followed by 50 μL of the test compound solution and 50 μL of enzyme (0.05 U final). After 5 min of preincubation at 25 °C, the reaction was then initiated by the injection of 50 μL of 10 mM acetylthiocholine iodide solution. […] Assays were performed with a blank containing all components except acetylthiocholine, in order to account for non-enzymatic reactions. The reaction slopes were compared and the percent inhibition due to the presence of test compounds was calculated by the following expression: 100 − (vi/v0 × 100), where vi is the rate calculated in the presence of inhibitor and v0 is the enzyme activity.
compound,measurement,setting,value
"CCN(C)C(=O)Oc1cccc(CN2CCC(CCC(=O)c3cc(Cl)c(N)cc3OC)CC2)c1.O=C(O)/C=C/C(=O)O [Compound 20, [3-[[4-[3-(4-Amino-5-chloro-2-methoxyphenyl)-3-oxopropyl]-1-piperidyl]methyl]phenyl] N-ethyl-N-methyl-carbamate fumaric acid salt]",spontaneous locomotor activity versus NaCl,mice [1],"none of the tested doses of compound 20 (1, 3 and 10 mg/kg) statically modified spontaneous locomotor activity"
same,percentage of spontaneous alternation,mice [2],significantly different from the value of the chance level
same,IC50,AChE,6.07 ± 0.404 µM

# Reference: article PMC6696315, “Inhibiting Acetylcholinesterase to Activate Pleiotropic Prodrugs with Therapeutic Interest in Alzheimer’s Disease” (Molecules, 2019)
